Where no end group is shown, it is not given here.
System: dsDNA ([…])
Assay: DNA binding by fluorescence intercalator displacement
Details: C50 normalized compared to BF2

Row | Compound | Relative C50
1 | CC(C)C[C@H](NC(=O)CNC(=O)[C@H](C)NC(=O)[C@H](CCCNC(=N)N)NC(=O)[C@H](CO)NC(=O)[C@H](CO)NC(=O)[C@H](CCCNC(=N)N)NC(=O)[C@@H](N)[C@@H](C)O)C(=O)N[C@@H](CCC(N)=O)C(=O)N[C@@H](Cc1c[nH]c2ccccc12)C(=O)N1CCC[C@H]1C(=O)N[C@H](C(=O)NCC(=O)N[C@@H](CCCNC(=N)N)C(=O)N[C@H](C(=O)N[C@@H](Cc1c[nH]cn1)C(=O)N[C@@H](CCCNC(=N)N)C(=O)N[C@@H](CC(C)C)C(=O)N[C@@H](CC(C)C)C(=O)N[C@@H](CCCNC(=N)N)C(=O)N[C@@H](CCCCN)C(=O)O)C(C)C)C(C)C [BF2] | 1
2 | KVLRDNIQGWTKPAIRRLARRG [DesHDAP3] | 1.09
